Source: ChEMBL document CHEMBL6074635, “Replacement of the essential nitro group by electrophilic warheads towards nitro-free antimycobacterial benzothiazinones” (Eur J Med Chem, 2024)
≈ marks a conversion by molar mass, not a printed value.

Legend:
[1] = system: Mycobacterium tuberculosis; test: Antimycobacterial activity against Mycobacterium tuberculosis H37Rv assessed as inhibition of bacterial growth incubated for 7 days by resazurin dye based two-fold dilution assay; format: functional; details: 168 h, time 7 day
[2] = system: Mycobacterium tuberculosis; test: Antimycobacterial activity against Mycobacterium tuberculosis Erdman ATCC 35801 assessed as inhibition of bacterial growth incubated for 7 days by resazurin dye based two-fold dilution assay; format: functional; details: Erdman ATCC 35801, 168 h, time 7 day
[3] = Cytotoxicity against human HeLa cells incubated for 72 hrs by cell-titer blue reagent assay; format: toxicity, cell-based
[4] = Stability of compound in PBS at pH 7.4 assessed as half-life in presence of GSH incubated for 90 mins by UPLC-HRMS analysis; format: physicochemical; details: PBS with GSH
[5] = system: Mycolicibacterium smegmatis; test: Antimycobacterial activity against Mycobacterium smegmatis JMRC:STH:00056 assessed as inhibition of bacterial growth incubated for 42 hrs by broth microdilution method; format: functional
[6] = Drug metabolism in BALB/cAnNCrl mouse assessed as HMC metabolite formation at 250 mg/kg,po measured after 24 hrs by UHPLC-HRMS analysis; format: ADME, organism-based; details: in vivo
[7] = system: Mycolicibacterium vaccae; test: Antimycobacterial activity against Mycobacterium vaccae JMRC:STI:10670 assessed as inhibition of bacterial growth incubated for 42 hrs by broth microdilution method; format: functional
[8] = target: T1, Decaprenylphosphoryl-beta-D-ribose oxidase (Mycobacterium tuberculosis (strain ATCC 25618 / H37Rv), UniProt P9WJF1); test: Reversible inhibition of recombinant Mycobacterium tuberculosis DprE1 extracted from Escherichia coli BL21(DE3) using FPR/GGPR as substrate incubated for 60 mins by resazurin dye based fluorescence plate reader analysis
T1 sequence (P9WJF1 whole entry): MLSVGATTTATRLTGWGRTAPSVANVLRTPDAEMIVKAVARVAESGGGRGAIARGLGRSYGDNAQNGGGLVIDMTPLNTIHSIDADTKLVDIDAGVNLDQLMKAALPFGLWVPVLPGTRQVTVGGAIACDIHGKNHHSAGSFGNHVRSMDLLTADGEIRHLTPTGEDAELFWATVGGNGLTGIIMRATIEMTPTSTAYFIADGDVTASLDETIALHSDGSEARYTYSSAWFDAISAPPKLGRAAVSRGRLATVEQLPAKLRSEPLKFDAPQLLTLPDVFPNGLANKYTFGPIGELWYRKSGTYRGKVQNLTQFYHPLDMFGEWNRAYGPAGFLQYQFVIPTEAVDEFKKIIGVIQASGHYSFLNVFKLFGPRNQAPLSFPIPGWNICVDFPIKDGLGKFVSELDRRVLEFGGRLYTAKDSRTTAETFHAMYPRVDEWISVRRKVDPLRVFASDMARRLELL

[9] = Stability of compound in PBS at pH 7.4 in presence of GSH incubated for 90 mins by UPLC-HRMS analysis; format: physicochemical; details: buffer, pH 7.4, 1.5 h
[10] = target: T1, Decaprenylphosphoryl-beta-D-ribose oxidase; test: Covalent inhibition of recombinant Mycobacterium tuberculosis DprE1 extracted from Escherichia coli BL21(DE3) using FPR/GGPR as substrate incubated for 60 mins by resazurin dye based fluorescence plate reader analysis
[11] = target: T1, Decaprenylphosphoryl-beta-D-ribose oxidase; test: Covalent inhibition of recombinant Mycobacterium tuberculosis DprE1 extracted from Escherichia coli BL21(DE3) assessed as inhibition constant using FPR/GGPR as substrate incubated for 60 mins by resazurin dye based fluorescence plate reader analysis
[12] = Stability of compound in PBS at pH 7.4 assessed as compound remaining in presence of GSH incubated for 90 mins by UPLC-HRMS analysis; format: physicochemical; details: PBS with GSH, read-out: Stability

Row | Structure (SMILES) | MIC [1] [µM] | MIC [2] [µM] | CC50 at 72 h [3] [µM] | half-life [4] [min] | MIC [5] [µM] | Drug metabolism [6] | MIC [7] [µM] | IC50 [8] [µM] | Stability [9] | IC50 [10] [µM] | Ki [11] [µM] | remaining at 1.5 h [12] [%]
1 | C#CP(=O)(Nc1cc(C(F)(F)F)cc2c(=O)nc(N3CCC4(CC3)OC[C@H](C)O4)sc12)OCC (stereo partly specified) | 10.3 (≈ 5.33 µg/mL) | 10.3 (≈ 5.33 µg/mL) | 10.8 | 10.5 | 96.6 (≈ 50 µg/mL) | metabolite_notdetected | 12 (≈ 6.21 µg/mL) | – | – | – | – | –
2 | C=C=CC(=O)Nc1cc(C(F)(F)F)cc2c(=O)nc(N3CCC4(CC3)OC[C@H](C)O4)sc12 | – | – | – | – | 107 (≈ 50 µg/mL) | – | 107 (≈ 50 µg/mL) | – | – | – | – | –
3 | C=CS(=O)(=O)Nc1cc(C(F)(F)F)cc2c(=O)nc(N3CCC4(CC3)OC[C@H](C)O4)sc12 | 45.2 (≈ 22.2 µg/mL) | 44.9 (≈ 22.1 µg/mL) | – | – | 25.4 (≈ 12.5 µg/mL) | – | 1.6 (≈ 0.786 µg/mL) | 2.62 | – | – | – | –
4 | COC(=O)C(=O)Nc1cc(C(F)(F)F)cc2c(=O)nc(N3CCC4(CC3)OC[C@H](C)O4)sc12 | – | – | > 50 | – | 103 (≈ 50 µg/mL) | metabolite_notdetected | 51.3 (≈ 25 µg/mL) | – | Unstable | – | – | –
5 | CCOC(=O)C(=O)Nc1cc(C(F)(F)F)cc2c(=O)nc(N3CCC4(CC3)OC[C@H](C)O4)sc12 | – | – | > 50 | – | 99.7 (≈ 50 µg/mL) | metabolite_notdetected | 49.8 (≈ 25 µg/mL) | – | Unstable | – | – | –
6 | C=CC(=O)Nc1cc(C(F)(F)F)cc2c(=O)nc(N3CCC4(CC3)OC[C@H](C)O4)sc12 | 3.9 (≈ 1.78 µg/mL) | 3.6 (≈ 1.64 µg/mL) | – | – | 110 (≈ 50 µg/mL) | – | – | – | – | 6.83 | 38.8 | –
7 | C=C(F)C(=O)Nc1cc(C(F)(F)F)cc2c(=O)nc(N3CCC4(CC3)OC[C@H](C)O4)sc12 | 13 (≈ 6.15 µg/mL) | 15.5 (≈ 7.34 µg/mL) | – | – | 106 (≈ 50 µg/mL) | – | 13.2 (≈ 6.25 µg/mL) | 1.13 | – | – | – | –
8 | C[C@H]1COC2(CCN(c3nc(=O)c4cc(C(F)(F)F)cc(NC(=O)C(C)(C)Br)c4s3)CC2)O1 | – | – | > 50 | – | 90.8 (≈ 50 µg/mL) | metabolite_notdetected | 45.4 (≈ 25 µg/mL) | – | – | 81.4 | 715 | 100
9 | C[C@H]1COC2(CCN(c3nc(=O)c4cc(C(F)(F)F)cc(N5CCC5=O)c4s3)CC2)O1 | – | – | > 50 | – | 110 (≈ 50 µg/mL) | – | 54.9 (≈ 25 µg/mL) | – | – | – | – | 100
10 | C=C(C)C(=O)Nc1cc(C(F)(F)F)cc2c(=O)nc(N3CCC4(CC3)OC[C@H](C)O4)sc12 | – | – | – | – | 106 (≈ 50 µg/mL) | – | 26.6 (≈ 12.5 µg/mL) | – | – | 33.9 | 214 | –
11 | CC(Cl)C(=O)Nc1cc(C(F)(F)F)cc2c(=O)nc(N3CCC4(CC3)OC[C@H](C)O4)sc12 (stereo partly specified) | – | – | > 50 | – | 102 (≈ 50 µg/mL) | metabolite_notdetected | 102 (≈ 50 µg/mL) | – | – | – | – | 100
12 | C=CP(=O)(Nc1cc(C(F)(F)F)cc2c(=O)nc(N3CCC4(CC3)OC[C@H](C)O4)sc12)OCC (stereo partly specified) | 4.5 (≈ 2.34 µg/mL) | 5 (≈ 2.6 µg/mL) | > 50 | – | 24.1 (≈ 12.5 µg/mL) | metabolite_notdetected | 6 (≈ 3.12 µg/mL) | 19.5 | – | – | – | 100
13 | C[C@H]1COC2(CCN(c3nc(=O)c4cc(C(F)(F)F)cc([N+](=O)[O-])c4s3)CC2)O1 [BTZ-043] | 0.002 (≈ 0.000863 µg/mL) | 0.002 (≈ 0.000863 µg/mL) | – | – | 0.058 (≈ 0.025 µg/mL) | – | 0.004 (≈ 0.00173 µg/mL) | – | – | – | – | –
